Where two headings read alike, the source gives them in different places.
Assays:
[1] = target: T1, BRD2 (Homo sapiens, UniProt P25440); experiment: substrate binding (displacement) assay with engineered tandem bromodomain protein
T1 construct: BRD2-BD12 (engineered protein containing both bromodomains)

[2] = target: T2, BRD4 (Homo sapiens, UniProt O60885); experiment: as above; settings: read-out: PLX2853 / IC50 (μM) ^a
T2 construct: BRD4-BD12 (engineered protein containing both bromodomains)

T1 sequence (P25440 74-453 limits assumed): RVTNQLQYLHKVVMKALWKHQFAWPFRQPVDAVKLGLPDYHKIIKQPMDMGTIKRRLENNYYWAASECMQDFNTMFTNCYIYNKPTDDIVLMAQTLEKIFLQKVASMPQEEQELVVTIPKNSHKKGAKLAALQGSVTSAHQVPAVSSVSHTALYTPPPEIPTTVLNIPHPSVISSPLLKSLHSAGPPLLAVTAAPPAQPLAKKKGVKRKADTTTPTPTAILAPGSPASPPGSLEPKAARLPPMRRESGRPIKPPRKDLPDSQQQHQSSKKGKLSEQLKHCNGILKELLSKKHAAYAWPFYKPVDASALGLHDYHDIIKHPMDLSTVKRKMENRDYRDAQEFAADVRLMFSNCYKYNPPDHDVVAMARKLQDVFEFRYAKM

`Cc1noc(C)c1-c1cnc2c(-c3ccc(C(=O)O)cc3)cn(C(C)(c3ccccn3)c3ccccn3)c2c1` [PLX2853] gave an IC50 ([1]; read-out: PLX2853 / IC50 (μM) ^a) of 0.0073 µM and an IC50 [2] of 0.0043 µM.

For `Cc1noc(C)c1-c1cnc2c(-c3ccc(C(=O)O)cc3)cn([C@@H](C)c3ccccn3)c2c1` [PLX51107], the IC50 [1] was 0.052 µM.

— publication PMC8554203, “Inhibition of Bromodomain and Extra Terminal (BET) Domain Activity Modulates the IL-23R/IL-17 Axis and Suppresses Acute Graft-Versus-Host Disease” (Frontiers in Oncology, 2021)
